Columns and labels:
[1] = tested on: chorioallantoic membranes (CAM) of 7-days old chicken embryos incubated with murine mammary carcinoma Cl-66 cells; details: 3-day incubation
Experimental: The chorioallantoic membranes (CAM) of 7-days old chicken embryos were incubated with each 10^5 cells of the murine mammary carcinoma Cl-66 24 hours prior to a 3-day incubation with disks containing either 5 μg of Doxorubicin, 5 μg of Dox equivalent in nanoparticles (14/1/1 IMMA/NOBA/NaA, PEG3400), 5 μg of Dox equivalent in nanoparticles functionalized with cyclic-RGD (14/1/1 IMMA/NOBA/NaA, PEG3400-cRGD), or PBS as a control. Linker attachment to nanoparticles was made as described in Example 31.
After 3 days, CAMs were excised and photographed for analysis.

[2] = tested on: C-32 cells (human melanoma); test: In vitro cytotoxicity, MTT cell proliferation assay; assay type: cell-based; details: 48 hours, free drug
Experimental: The toxicity of Dox linked to the nanoarticles via the amide bond was tested in an in vitro toxicity assay against C-32 cells (human melanoma).
In a 96-well tissue culture microtiter plate, 10,000 cells of C-32 per well in culture medium were allowed to attach for 2 hours prior to incubation with varying concentrations of Dox-amide nanoarticle, and free Dox. Cells were incubated at 37° C., 5% CO2 in a humidified chamber for 48 hours. Cell proliferation was assayed using the calorimetric MTT kit (CT01, Chemicon, Int.).
The toxicity of Dox linked to the nanoarticles via the hydrazone bond was tested in an in vitro toxicity assay against C-32 cells (human melanoma).
In a 96-well tissue culture microtiter plate, 10,000 cells of C-32 per well in culture medium were allowed to attach for 2 hours prior to incubation with varying concentrations of Dox-hydrazone nanoarticle, and free Dox. Cells were incubated at 37° C., 5% CO2 in a humidified chamber for 48 hours. Cell proliferation was assayed using the calorimetric MTT kit (CT01, Chemicon, Int.).

[3] = tested on: CL66 murine mammary carcinoma cells
Experimental: The efficacy and toxicity of nano-article-conjugated doxorubicin (Dox-NP) was compared to doxorubicin (Dox) and a saline control. Dox-NP of composition 14/1/1 IMMA/CiBA/NaA, 5.6 w % Dox were made following procedures described in Example 16.
CL66 murine mammary carcinoma cells were grown to 80-90% confluence in supplemented media, trypsinized for 2 min at 37° C. with 1× trypsin, rinsed with Hank's Balanced Salt Solution (w/out calcium and magnesium) and resuspended at 1×10^6 cell/ml, with 0.1 ml injected into the mammary fat pad of female Balb/C mice.
Lyophilized Dox-NP was reconstituted in sterile PBS at the appropriate concentration and stored at 2-8° C. for at least 1 hour, or overnight. Excipient Dox was diluted in PBS at the appropriate concentrations. 200 μL was injected intravenously through the tail vein of the mice on days 13, 15, and 18 following tumor challenge. Dox was injected at 225 μg/animal, while Dox-NP was injected at a nano-article level sufficient to deliver Dox at 250, 420 and 560 μg/animal.
Tumor volumes were measured superficially in two dimensions. Weight loss (or gain) and survival were recorded.

COc1cccc2c1C(=O)c1c(O)c3c(c(O)c1C2=O)C[C@@](O)(C(=O)CO)C[C@@H]3O[C@H]1C[C@H](N)[C@H](O)[C@H](C)O1 [Doxorubicin]
reduction of the number of blood vessels / blood vessel distribution around the disk ([1]; disks with 5 μg Dox or Dox equivalent): most effective in reducing the number of blood vessels
embryos died during treatment ([1]; disks with 5 μg): 3 out of 10
50% growth inhibition [2]: 0.8 µg/mL
survival time ([3]; 225 μg/animal Dox compared with the higher doses of Dox-NP): slightly longer survival time
toxicity ([3]; 225 μg/animal i.v. on days 13, 15, 18): toxic

— patent US20050129769A1, “Polymeric articles for carrying therapeutic agents” (priority 2002, published 2005)
